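Compound exposure: 48 hours, 5 concentrations, 96-well plates. At the GI50, growth is halved.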 Activity calls are given as the source filed them. Rule as the data show it: active = GI50 up to about 1.1 µM and inactive = higher.
Experiments:
Assay in all cases: inhibition of tumour cell growth, NCI panel, 48 h
[1] = tested on: UACC-62
[2] = tested on: A498
[3] = tested on: MDA-MB-435
[4] = tested on: OVCAR-4
[5] = tested on: Malme-3M
[6] = tested on: M14
[7] = tested on: OVCAR-5
[8] = tested on: DU-145
[9] = tested on: SK-MEL-2
[10] = tested on: EKVX
[11] = tested on: SNB-75
[12] = tested on: MDA-N
[13] = tested on: OVCAR-8
[14] = tested on: CAKI-1
[15] = tested on: SF-268
[16] = tested on: NCI-H23
[17] = tested on: HL-60
[18] = tested on: ACHN
[19] = tested on: NCI-H460
[20] = tested on: A549
[21] = tested on: PC-3
[22] = tested on: UACC-257
[23] = tested on: MDA-MB-231
[24] = tested on: SK-MEL-28
[25] = tested on: COLO 205
[26] = tested on: U-251
[27] = tested on: 786-0
[28] = tested on: K562
[29] = tested on: SNB-19
[30] = tested on: SF-295
[31] = tested on: SN12C
[32] = tested on: MOLT-4
[33] = tested on: SR
[34] = tested on: TK-10
[35] = tested on: HOP-62
[36] = tested on: SW-620
[37] = tested on: IGROV-1
[38] = tested on: UO-31
[39] = tested on: SF-539
[40] = tested on: CCRF-CEM
[41] = tested on: HCT-116
[42] = tested on: T47D
[43] = tested on: Hs-578T
[44] = tested on: NCI-H522
[45] = tested on: SK-OV-3
[46] = tested on: HCC 2998
[47] = tested on: NCI-H226
[48] = tested on: HCT-15
[49] = tested on: NCI/ADR-RES
[50] = tested on: HOP-92
[51] = tested on: MCF7
[52] = tested on: RXF 393
[53] = tested on: HT-29
[54] = tested on: RPMI-8226
[55] = tested on: KM12
[56] = tested on: LOX IMVI
[57] = tested on: OVCAR-3

In the case of `C=CCOC(=O)N1[C@H]2C#C/C=C\C#C[C@]3(O)C(=O)C[C@H](C)[C@]24O[C@]43C2=CC(=O)C=CC21OC` (some centres undefined), the GI50 [1] is reported as 31.2 µM (inactive), the GI50 [2] is reported as 2.35 µM (inactive) and the GI50 [3] is reported as 16.6 µM (inactive). For the same compound, the GI50 [4] was 26.4 µM (inactive), the GI50 [5] was 43.7 µM (inactive) and the GI50 [6] was 20.4 µM (inactive). The GI50 [7] was 35.2 µM (inactive), the GI50 [8] was 38.7 µM (inactive) and the GI50 [9] was 18 µM (inactive). For the same compound, the GI50 [10] was 44 µM (inactive), the GI50 [11] was 35.2 µM (inactive) and the GI50 [12] was 28.6 µM (inactive). The GI50 [13] was 22.5 µM (inactive), the GI50 [14] was 33.1 µM (inactive) and the GI50 [15] was 50.6 µM (inactive). The GI50 [16] was 27.2 µM (inactive), the GI50 [17] was 30.8 µM (inactive) and the GI50 [18] was 20.2 µM (inactive). The GI50 [19] was 13.9 µM (inactive), the GI50 [20] was 23.2 µM (inactive) and the GI50 [21] was 30.6 µM (inactive). The GI50 [22] was 19.4 µM (inactive), the GI50 [23] was 28.3 µM (inactive) and the GI50 [24] was 95.9 µM (inactive). The GI50 [25] was 13.6 µM (inactive), the GI50 [26] was 37.7 µM (inactive) and the GI50 [27] was 11.6 µM (inactive). For the same compound, the GI50 [28] was 42.2 µM (inactive), the GI50 [29] was 38.3 µM (inactive) and the GI50 [30] was 44 µM (inactive). The GI50 [31] was 25 µM (inactive), the GI50 [32] was 3.72 µM (inactive) and the GI50 [33] was 4.62 µM (inactive). The GI50 [34] was 18.4 µM (inactive), the GI50 [35] was 40.2 µM (inactive) and the GI50 [36] was 32.8 µM (inactive). For the same compound, the GI50 [37] was 16.7 µM (inactive), the GI50 [38] was 32 µM (inactive) and the GI50 [39] was 20.6 µM (inactive). For the same compound, the GI50 [40] was 16.8 µM (inactive), the GI50 [41] was 19.8 µM (inactive) and the GI50 [42] was 64.9 µM (inactive). The GI50 [43] was 49 µM (inactive), the GI50 [44] was 18.6 µM (inactive) and the GI50 [45] was 60.1 µM (inactive). For the same compound, the GI50 [46] was 26.5 µM (inactive), the GI50 [47] was 30.5 µM (inactive) and the GI50 [48] was 31.4 µM. The GI50 [49] was 43.8 µM (inactive), the GI50 [50] was 38 µM (inactive) and the GI50 [51] was 16.9 µM (inactive). For the same compound, the GI50 [52] was 20.9 µM (inactive), the GI50 [53] was 27.7 µM (inactive) and the GI50 [54] was 21.2 µM (inactive). The GI50 [55] was 32.9 µM (inactive).

For `Nc1nc(Cl)nc2c1ncn2C1CCC(COP(=O)(O)OP(=O)(O)OP(=O)(O)O)O1` (centres undefined), the GI50 [1] was 18.1 µM (inactive), the GI50 [2] was 26.1 µM (inactive) and the GI50 [3] was 23 µM (inactive). For the same compound, the GI50 [4] was 24.9 µM (inactive), the GI50 [5] was > 100 µM (inactive) and the GI50 [6] was 16.8 µM (inactive). The GI50 [7] was 22.8 µM (inactive), the GI50 [8] was 23.3 µM (inactive) and the GI50 [10] was 40.1 µM (inactive). The GI50 [11] was 34.4 µM (inactive), the GI50 [12] was 38 µM (inactive) and the GI50 [13] was 21.4 µM (inactive). The GI50 [14] was 6.89 µM (inactive), the GI50 [56] was 28.3 µM (inactive) and the GI50 [15] was 47.9 µM (inactive). For the same compound, the GI50 [16] was 19.9 µM (inactive), the GI50 [17] was 28.5 µM (inactive) and the GI50 [18] was 25.2 µM (inactive). For the same compound, the GI50 [19] was 41.6 µM (inactive), the GI50 [20] was 32.7 µM (inactive) and the GI50 [21] was 23.1 µM (inactive). For the same compound, the GI50 [22] was 41.6 µM (inactive), the GI50 [23] was 26.8 µM (inactive) and the GI50 [24] was 20.4 µM (inactive). For the same compound, the GI50 [25] was 20.5 µM (inactive), the GI50 [26] was 37.5 µM (inactive) and the GI50 [27] was 37.3 µM (inactive). For the same compound, the GI50 [29] was > 100 µM (inactive), the GI50 [30] was 17.9 µM (inactive) and the GI50 [31] was 38.8 µM (inactive). The GI50 [32] was 65 µM (inactive), the GI50 [33] was 23.1 µM (inactive) and the GI50 [34] was 25.1 µM (inactive). The GI50 [35] was 19.2 µM (inactive), the GI50 [36] was 32.4 µM (inactive) and the GI50 [37] was 30.5 µM (inactive). The GI50 [38] was 12.7 µM (inactive), the GI50 [39] was 67.3 µM (inactive) and the GI50 [40] was 44.3 µM (inactive). For the same compound, the GI50 [41] was 35.2 µM (inactive), the GI50 [42] was 23.8 µM (inactive) and the GI50 [43] was 29.7 µM (inactive). For the same compound, the GI50 [44] was 25.8 µM (inactive), the GI50 [45] was 57.3 µM (inactive) and the GI50 [46] was 28.1 µM (inactive). The GI50 [47] was 27.7 µM (inactive), the GI50 [48] was 34.8 µM and the GI50 [49] was 21.8 µM (inactive). The GI50 [50] was 23.7 µM (inactive), the GI50 [51] was 29.4 µM (inactive) and the GI50 [57] was 50.2 µM (inactive). The GI50 [52] was 24.5 µM (inactive), the GI50 [53] was 32 µM (inactive) and the GI50 [55] was 32.4 µM (inactive).

From ChEMBL document CHEMBL1201862, “PubChem BioAssay data set” (2004)
